According to the supplement of paper PMC10307832:

Experiments:
Experiment in all cases: relative viability (nuclei count vs DMSO), 5 days (fraction); higher = more cells survive
[1] = compound: CC1=C(C(=NN1)C)CC2=C(C3=C(S2)N(C(=O)N(C3=O)C)CC(C)C)C(=O)N4C[C@@H](CO4)O + Cc1cc(Nc2cc(N3CCN(C)CC3)nc(Sc3ccc(NC(=O)C4CC4)cc3)n2)n[nH]1 [Tozasertib] (partner 0.1 µM)
Method in brief: (§1)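 Five library-drug doses in √10 steps were combined with a fixed anchor-drug dose, or a single drug was given alone, by pin tool to lung cancer cell lines in 1536-well plates the day after seeding. Nuclei were stained and counted after 5 days. Relative viability is the nuclei count in treated wells over that in vehicle wells, taken as the median of duplicate plates.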

IDH-C35 + Palbociclib = compound: Cc1ccccc1C(C(=O)NC1CCCCC1)N(C(=O)Cn1ccnc1C)c1cccc(F)c1 [IDH-C35] + CC(=O)c1c(C)c2cnc(Nc3ccc(N4CCNCC4)cn3)nc2n(C2CCCC2)c1=O [Palbociclib] (partner 0.5 µM)
Method in brief: as §1

IDH-C35 + Navitoclax = compound: Cc1ccccc1C(C(=O)NC1CCCCC1)N(C(=O)Cn1ccnc1C)c1cccc(F)c1 [IDH-C35] + CC1(C)CCC(c2ccc(Cl)cc2)=C(CN2CCN(c3ccc(C(=O)NS(=O)(=O)c4ccc(N[C@H](CCN5CCOCC5)CSc5ccccc5)c(S(=O)(=O)C(F)(F)F)c4)cc3)CC2)C1 [Navitoclax] (partner 0.5 µM)
Method in brief: as §1

IDH-C35 + Linsitinib = compound: Cc1ccccc1C(C(=O)NC1CCCCC1)N(C(=O)Cn1ccnc1C)c1cccc(F)c1 [IDH-C35] + C[C@]1(O)C[C@@H](c2nc(-c3ccc4ccc(-c5ccccc5)nc4c3)c3c(N)nccn32)C1 [Linsitinib] (partner 1 µM)
Method in brief: as §1

Row | Cell Line | relative viability ([1]; first compound 0.0025 µM) | relative viability ([1]; first compound 0.007906 µM) | relative viability ([1]; first compound 0.025 µM) | relative viability ([1]; first compound 0.07906 µM) | relative viability ([1]; first compound 0.25 µM) | relative viability (IDH-C35 + Palbociclib; first compound 0.08 µM) | relative viability (IDH-C35 + Palbociclib; first compound 0.253 µM) | relative viability (IDH-C35 + Palbociclib; first compound 0.8 µM) | relative viability (IDH-C35 + Palbociclib; first compound 2.53 µM) | relative viability (IDH-C35 + Palbociclib; first compound 8 µM) | relative viability (IDH-C35 + Navitoclax; first compound 0.08 µM) | relative viability (IDH-C35 + Navitoclax; first compound 0.253 µM) | relative viability (IDH-C35 + Navitoclax; first compound 0.8 µM) | relative viability (IDH-C35 + Navitoclax; first compound 2.53 µM) | relative viability (IDH-C35 + Navitoclax; first compound 8 µM) | relative viability (IDH-C35 + Linsitinib; first compound 0.08 µM) | relative viability (IDH-C35 + Linsitinib; first compound 0.253 µM) | relative viability (IDH-C35 + Linsitinib; first compound 0.8 µM) | relative viability (IDH-C35 + Linsitinib; first compound 2.53 µM) | relative viability (IDH-C35 + Linsitinib; first compound 8 µM)
1 | NCI-H1975 | 0.801 | 0.682 | 0.791 | 0.905 | 0.739 | 0.642 | 0.653 | 0.606 | 0.67 | 0.56 | 1.12 | 1.34 | 1.03 | 1.09 | 1.01 | 0.854 | 0.937 | 0.93 | 0.92 | 0.878
2 | CAL-12T | 0.334 | 0.315 | 0.366 | 0.332 | 0.304 | 0.524 | 0.575 | 0.414 | 0.525 | 0.408 | 1.32 | 1.19 | 1.06 | 1.36 | 1.09 | 0.841 | 0.826 | 0.779 | 0.733 | 0.826
3 | NCI-H1623 | 0.463 | 0.494 | 0.467 | 0.398 | 0.49 |  |  |  |  |  |  |  |  |  |  |  |  |  |  | 
4 | HCC-44 | 0.888 | 0.746 | 0.915 | 0.882 | 1.13 | 0.973 | 0.965 | 0.987 | 0.951 | 0.962 | 0.927 | 1.02 | 1.02 | 0.953 | 0.952 | 0.656 | 0.628 | 0.647 | 0.876 | 0.69
5 | EKVX | 0.398 | 0.404 | 0.432 | 0.394 | 0.422 | 0.402 | 0.365 | 0.385 | 0.356 | 0.373 | 1.17 | 0.911 | 0.899 | 1.01 | 0.897 | 1.05 | 1.09 | 0.957 | 0.988 | 1.01
6 | NCI-H1651 | 0.702 | 0.802 | 0.58 | 0.625 | 0.767 | 0.499 | 0.505 | 0.523 | 0.527 | 0.545 | 1.03 | 1.01 | 0.972 | 1.03 | 1.01 | 0.918 | 0.925 | 0.966 | 1.02 | 0.903
7 | NCI-H1944 | 0.263 | 0.269 | 0.246 | 0.25 | 0.253 | 0.376 | 0.345 | 0.338 | 0.317 | 0.323 | 1.02 | 1.04 | 0.942 | 1.05 | 1.04 | 1.07 | 1.29 | 1.27 | 1.09 | 1.1
8 | NCI-H1703 |  |  |  |  |  |  |  |  |  |  | 1.05 | 1.29 | 1.49 | 1.11 | 0.897 | 0.821 | 0.787 | 0.632 | 0.778 | 0.536
9 | Calu-6 |  |  |  |  |  |  |  |  |  |  | 0.838 | 0.765 | 0.997 | 0.968 | 0.78 | 0.993 | 0.928 | 0.961 | 0.932 | 0.88
10 | EBC-1 |  |  |  |  |  |  |  |  |  |  | 0.364 | 0.503 | 0.52 | 0.359 | 0.203 | 1.04 | 0.949 | 1.02 | 0.867 | 0.852
11 | SW 1573 | 0.16 | 0.171 | 0.198 | 0.284 | 0.214 | 0.43 | 0.432 | 0.388 | 0.462 | 0.353 | 0.964 | 1.07 | 1.07 | 0.841 | 1.02 | 0.78 | 0.752 | 0.832 | 0.821 | 0.678
12 | A-427 | 0.189 | 0.188 | 0.215 | 0.227 | 0.237 | 0.529 | 0.527 | 0.511 | 0.512 | 0.545 | 0.975 | 0.975 | 0.904 | 0.949 | 0.952 | 1.13 | 1.17 | 1.07 | 1.1 | 1.18
13 | NCI-H2347 | 0.584 | 0.591 | 0.54 | 0.522 | 0.727 | 0.432 | 0.469 | 0.42 | 0.475 | 0.448 | 0.766 | 0.765 | 0.801 | 0.851 | 0.742 | 0.973 | 0.932 | 1.01 | 0.987 | 0.918
14 | NCI-H1355 | 0.527 | 0.437 | 0.529 | 0.566 | 0.623 | 0.438 | 0.4 | 0.393 | 0.427 | 0.388 | 0.952 | 0.928 | 0.934 | 0.938 | 0.996 | 0.896 | 0.859 | 0.848 | 0.773 | 0.892
15 | NCI-H358 | 0.12 | 0.0943 | 0.0965 | 0.11 | 0.112 | 0.134 | 0.131 | 0.146 | 0.148 | 0.123 |  |  |  |  |  | 0.746 | 0.719 | 0.786 | 0.713 | 0.649
16 | PC-3 [JPC-3] | 0.932 | 0.74 | 0.867 | 0.932 | 1.01 | 0.563 | 0.532 | 0.558 | 0.587 | 0.534 | 0.789 | 0.718 | 0.778 | 0.858 | 0.74 | 0.939 | 0.985 | 0.96 | 0.969 | 0.936
17 | NCI-H2228 | 0.239 | 0.248 | 0.265 | 0.26 | 0.279 | 0.795 | 0.728 | 0.738 | 0.723 | 0.728 | 0.915 | 1.18 | 1.29 | 0.875 | 0.706 | 0.596 | 0.496 | 0.629 | 0.668 | 0.749
18 | HOP-62 | 0.312 | 0.376 | 0.344 | 0.393 | 0.407 | 0.377 | 0.435 | 0.426 | 0.419 | 0.394 | 1.07 | 0.939 | 0.84 | 0.974 | 0.891 | 1.15 | 0.803 | 0.924 |  | 1.01
